Data published in article PMC8348310, “Antioxidants Isolated from Elaeagnus umbellata (Thunb.) Protect against Bacterial Infections and Diabetes in Streptozotocin-Induced Diabetic Rat Model” (Molecules, 2021).
Values after ≈ are worked out from the molar mass of the structure shown.

How the values were obtained:
[1] = DPPH free radical scavenging assay; format: biochemical; conditions: 125 µg/mL
Salmonella typhi [2] = test: Broth dilution MIC determination; format: cell-based; conditions: Salmonella enterica, 24 h, read-out: Minimum Inhibitory Concentrations
Proteus mirabilis [3] = test: Agar well diffusion, zone of inhibition; format: cell-based; conditions: 37 °C, 24 h; for Zone of Inhibition: 100 µg/mL
Description: (§1) Antibacterial potential of isolated compound was investigated against both Gram-positive and Gram-negative bacterial strains; Escherichia coli, Bacillus cereus, Salmonella typhi, Klebsiella pneumonia, Pseudomonas aeruginosa and Proteus mirabilis. Bacterial strains were provided by the Department of Pharmacy, University of Malakand, Khyber Pakhtunkhwa, Pakistan, and were kept at 4 °C in agar slants in freeze-dried condition until further use.
(§2) Both Gram-positive and Gram-negative bacterial strains Escherichia coli, Bacillus cereus, Salmonella typhi, Klebsiella pneumonia, Pseudomonas aeruginosa and Proteus mirabilis organism viable count per mL in the stock suspension was determined using surface viable counting technique. About 10^8–10^9 colony-forming units (CFU) per mL were used as inoculum in subsequent experiments. A fresh stock suspension was used each time.
(§3) The antibacterial activity of the isolated compounds (morin, phloroglucinol, and 1-hexyl benzene) was determined using agar well diffusion method. Muller–Hinton agar media was prepared and autoclaved at 15 lbs pressure for 20 min and cooled to 45 °C. The standard bacterial stock suspension 10^8–10^9 CFU/mL were spread on Muller–Hinton agar plates and five wells (3 mm in diameter; four on side and one in center) were punched in plates using a sterile cork borer. The entire wells were filled with 100 µL of the isolated compounds (stock solution: 1 mg/mL) using microtiter-pipette and allowed to diffuse at room temperature for 2 h. The plates were incubated at 37 °C for 24 h. In the center hole, Imipenem was added which served as positive control. Simultaneous, addition of an equal concentration of DMSO solvent instead of isolated compounds was used as blank. After incubation, the zones of inhibition were measured in millimeters (mm) and mean values were calculated. The experiments were performed in triplicates.

Pseudomonas aeruginosa [4] = test: Agar well diffusion, zone of inhibition; format: cell-based; conditions: 37 °C, 24 h; for Zone of Inhibition: 100 µg/mL
Description: as §1, §2, §3

Escherichia coli [5] = test: Agar well diffusion, zone of inhibition; format: cell-based; conditions: 37 °C, 24 h; for Zone of Inhibition: 100 µg/mL
Description: as §1, §2, §3

Bacillus cereus [6] = test: Agar well diffusion, zone of inhibition; format: cell-based; conditions: 37 °C, 24 h; for Zone of Inhibition: 100 µg/mL
Description: as §1, §2, §3

Klebsiella pneumonia [7] = test: Agar well diffusion, zone of inhibition; format: cell-based; conditions: 37 °C, 24 h; for Zone of Inhibition: 100 µg/mL; for zone of inhibition at 100 µg/mL: Klebsiella pneumoniae
Description: as §1, §2, §3

Proteus mirabilis [8] = test: Broth dilution MIC determination; format: cell-based; conditions: 37 °C, 24 h, read-out: Minimum Inhibitory Concentrations
Description: as §1, §2
(§4) Minimum inhibitory concentrations (MICs) of morin, phloroglucinol, and 1-hexyl benzene were determined using broth dilution method, following the Clinical and Laboratory Standards Institute (CLSI) guidelines. Stock solutions of morin, phloroglucinol, and 1-hexyl benzene were prepared in dimethylsulphoxide (DMSO). The serial dilutions from the stock solution were made ranging from 500 to 3.90 μg/mL using Mueller–Hinton broth. Sterile centrifuge tubes were arranged in sets of rows for each bacterial inoculum to cover the different concentration of isolated compounds in triplicate. The standard bacterial stock suspension 10^8–10^9 CFU/mL, in 100 μL were inoculated into each tube. A sterility control tube and a growth control tube were also incubated (for each strain). The tubes were incubated at 37 °C for 24 h. After incubation, 40 μL of a 0.4 mg/mL solution of para iodonitrotetrazolium (INT) chloride was added to each tube as an indicator of microbial growth. […] The evaluation for the inhibition of microbial growth was based on the color change of INT to pink, while no color change indicates the absence of growth. The MIC is the lowest concentration of the compounds at which there is no visible growth in the tubes. The concentration that inhibited bacterial growth completely (the first clear tube) was taken as the MIC value. Experiments were performed in triplicate and mean values are presented.
(§5) In order to, determine the sensitivity of the bacterial strains, positive control experiments were conducted, taking ampicillin at a starting concentration of 0.10 mg/mL in sterile water while the final concentrations for these experiments ranged from 25.00 to 0.19 μg/mL. A negative control experiment was conducted using only DMSO.

Pseudomonas aeruginosa [9] = test: Broth dilution MIC determination; format: cell-based; conditions: 37 °C, 24 h, read-out: Minimum Inhibitory Concentrations
Description: as §1, §2, §4, §5

Escherichia coli [10] = test: Broth dilution MIC determination; format: cell-based; conditions: 37 °C, 24 h, read-out: Minimum Inhibitory Concentrations
Description: as §1, §2, §4, §5

Bacillus cereus [11] = test: Broth dilution MIC determination; format: cell-based; conditions: 37 °C, 24 h, read-out: Minimum Inhibitory Concentrations
Description: as §1, §2, §4, §5

Klebsiella pneumonia [12] = test: Broth dilution MIC determination; format: cell-based; conditions: Klebsiella pneumoniae, 37 °C, 24 h, read-out: Minimum Inhibitory Concentrations
Description: as §1, §2, §4, §5

Salmonella typhi [13] = test: Agar well diffusion, zone of inhibition; format: cell-based; conditions: 24 h; for zone of inhibition at 100 µg/mL: Salmonella enterica, TYPHI; for Zone of Inhibition: Salmonella typhi, 100 µg/mL, 37 °C
[14] = ABTS free radical scavenging assay; format: biochemical; conditions: for ABTS IC50: linear regression of % scavenging vs concentration
Description: ABTS (2,2′-azinobis-3-ethylbenzothiazoline-6-sulfonic acid) free radicals inhibition potential were determined according to the reported assay. ABTS solution was prepared in methanol (100 mL). In total, 300 µL of compound (morin, phloroglucinol, and 1-hexyl benzene) was mixed thoroughly with 3.0 mL ABTS solution and incubated for six minutes. Finally, the absorbance was measured through UV spectrophotometer using ascorbic acid as positive control. Percent ABTS free radicals scavenging potential was calculated using the equation No. 1.
(§6) All the in vitro and in vivo experiments were analyzed in three replicates and determined as mean ± SEM. Student’s t-test and one way ANOVA followed by Dunnett’s post hoc multiple comparison test was used. p ≤ 0.05 were considered as significant. Linear regression analysis was used to calculate the IC50 value for % DPPH, ABTS, α-amylase, and α-glucosidase inhibition against the different concentrations of the test samples by means of Excel program 2007.

[15] = DPPH free radical scavenging assay; format: biochemical; conditions: for DPPH IC50: linear regression of % scavenging vs concentration
Description: According to the Brand-Williams assay DPPH (2, 2-diphenyl-1-picrylhydrazyl) free radical scavenging activity of morin was determined. DPPH and compounds stock solutions (1 mg/mL) were prepared in 100 mL methanol with serial dilutions of […], 62.5, 250, 500, and 1000 µg/mL. After that, 0.1 mL morin was mixed with 3.0 mL DPPH solution and incubated at 23 °C for 30 min. Standard ascorbic acid solution was also prepared in the same way using as a positive control. Finally, absorbance was measured at 517 nm via UV spectrophotometer. Results were taken in a set of three experiments and represented as mean ± SEM. Percent free radicals scavenging potential was calculated according to the following Equation (1): (1) % Free radicals Scavenging potential = Blank sample absorbance−sample absorbance/Blank sample absorbance×100
as §6

SMILES | % DPPH Scavenging Mean ± SEM [1] [%] | MIC (Salmonella typhi [2]) [µg/mL] | Zone of Inhibition (Proteus mirabilis [3]) [mm] | zone of inhibition at 100 µg/mL (Proteus mirabilis [3]) [mm] | Zone of Inhibition (Pseudomonas aeruginosa [4]) [mm] | zone of inhibition at 100 µg/mL (Pseudomonas aeruginosa [4]) [mm] | Zone of Inhibition (Escherichia coli [5]) [mm] | zone of inhibition at 100 µg/mL (Escherichia coli [5]) [mm] | Zone of Inhibition (Bacillus cereus [6]) [mm] | zone of inhibition at 100 µg/mL (Bacillus cereus [6]) [mm] | Zone of Inhibition (Klebsiella pneumonia [7]) [mm] | zone of inhibition at 100 µg/mL (Klebsiella pneumonia [7]) [mm] | MIC (Proteus mirabilis [8]) [µg/mL] | MIC (Pseudomonas aeruginosa [9]) [µg/mL] | MIC (Escherichia coli [10]) [µg/mL] | MIC (Bacillus cereus [11]) [µg/mL] | MIC (Klebsiella pneumonia [12]) [µg/mL] | zone of inhibition at 100 µg/mL (Salmonella typhi [13]) [mm] | Zone of Inhibition (Salmonella typhi [13]) [mm] | % ABTS Scavenging Mean ± SEM ([14]; 31.05 µg/mL) [%] | other results
Oc1cc(O)cc(O)c1 [Phloroglucinol, Benzene-1,3,5-triol] | 40 ± 0.5 | 175 ± 2 (≈ 1390 µM) | 7.5 ± 0.2 | 7.5 ± 0.2 | 10 ± 1.1 | 10 ± 1.1 | 15 ± 0.3 | 15 ± 0.3 | 13 ± 1.2 | 13 ± 1.2 | 11 ± 0.5 | 11 ± 0.5 | 205 ± 1.5 (≈ 1630 µM) | 180 ± 2.1 (≈ 1430 µM) | 80 ± 1.4 (≈ 634 µM) | 105 ± 1.6 (≈ 833 µM) | 166 ± 1.5 (≈ 1320 µM) | 12 ± 1.1 | 12 ± 1.1 | 25 ± 1.0 | % ABTS Scavenging Mean ± SEM ([14]; 62.5 µg/mL): 33 ± 0.5 %; % ABTS Scavenging Mean ± SEM ([14]; 125 µg/mL): 39 ± 1.2 %; % ABTS Scavenging Mean ± SEM ([14]; 250 µg/mL): 45 ± 1.0 %; % ABTS Scavenging Mean ± SEM ([14]; 500 µg/mL): 51 ± 0.5 %; % ABTS Scavenging Mean ± SEM ([14]; 1000 µg/mL): 64 ± 1.1 %; ABTS IC50 [14]: 112 µg/mL; % DPPH Scavenging Mean ± SEM ([15]; 31.05 µg/mL): 32 ± 0.5 %; % DPPH Scavenging Mean ± SEM ([15]; 62.5 µg/mL): 36 ± 1.1 %; % DPPH Scavenging Mean ± SEM ([15]; 250 µg/mL): 51 ± 1.0 %; % DPPH Scavenging Mean ± SEM ([15]; 500 µg/mL): 57 ± 1.0 %; % DPPH Scavenging Mean ± SEM ([15]; 1000 µg/mL): 67 ± 0.4 %; DPPH IC50 [15]: 105 µg/mL
CCCCCCc1ccccc1 [1-Hexyl benzene, 1-hexylbenzene] | 40 ± 1.1 | 112 ± 1.6 (≈ 690 µM) | 4.5 ± 1.5 | 4.5 ± 1.5 | 5.5 ± 0.5 | 5.5 ± 0.5 | 9.3 ± 1.1 | 9.3 ± 1.1 | 8.5 ± 0.1 | 8.5 ± 0.1 | 6.3 ± 0.5 | 6.3 ± 0.5 | 250 ± 1.2 (≈ 1540 µM) | 200 ± 1.5 (≈ 1230 µM) | 95 ± 2.1 (≈ 585 µM) | 135 ± 1.5 (≈ 832 µM) | 178 ± 2.2 (≈ 1100 µM) | 7.4 ± 1.2 | 7.4 ± 1.2 | 19 ± 1.4 | % ABTS Scavenging Mean ± SEM ([14]; 62.5 µg/mL): 26 ± 0.5 %; % ABTS Scavenging Mean ± SEM ([14]; 125 µg/mL): 31 ± 1.0 %; % ABTS Scavenging Mean ± SEM ([14]; 250 µg/mL): 39 ± 1.5 %; % ABTS Scavenging Mean ± SEM ([14]; 500 µg/mL): 47 ± 2.2 %; % ABTS Scavenging Mean ± SEM ([14]; 1000 µg/mL): 55 ± 1.1 %; ABTS IC50 [14]: 129 µg/mL; % DPPH Scavenging Mean ± SEM ([15]; 31.05 µg/mL): 28 ± 1.1 %; % DPPH Scavenging Mean ± SEM ([15]; 62.5 µg/mL): 35 ± 0.4 %; % DPPH Scavenging Mean ± SEM ([15]; 250 µg/mL): 46 ± 0.5 %; % DPPH Scavenging Mean ± SEM ([15]; 500 µg/mL): 53 ± 2.1 %; % DPPH Scavenging Mean ± SEM ([15]; 1000 µg/mL): 59 ± 1.5 %; DPPH IC50 [15]: 118 µg/mL
